Experimental data as given in publication PMC12389269, “Heteroaryl-Capped Hydroxamic Acid Derivatives with Varied Linkers: Synthesis and Anticancer Evaluation with Various Apoptosis Analyses in Breast Cancer Cells, Including Docking, Simulation, DFT, and ADMET Studies” (Pharmaceuticals, 2025).

Key:
A549 cells = experiment: MTT cytotoxicity assay, A549; type: cell-based; conditions: Homo sapiens, A549, 24 h
Procedure: (§1) Following an extensive review of the literature, we selected human breast cancer (MCF-7, MDA-MB-231) and lung cancer (A549) cell lines to evaluate the anticancer potential of the synthesized compounds, and some compounds with good anti-proliferation activity were again tested to evaluate their cytotoxic potential on A-549, MCF-7, and MDA-MB-231. The same were also tested on one non-cancerous/normal (HEK-293) cell line. All the cell lines for the required screening were developed in a suitable medium comprising 10% FBS and 2mM L-glutamine. Cancerous and non-cancerous/normal cell lines were selected for the cell proliferation and cytotoxicity assay and maintained with 5% CO2 at 37 °C in a CO2 incubator with 100% relative humidity for one complete day before the addition of experimental drugs.
MTT, a well-known colorimetric cytotoxic assay was performed to validate the cytotoxicity of the selected compounds—VI(b), VI(c), VI(e), and VI(i)—against three different human tumor cell lines [MCF-7, MDA-MB-231, A549] and a normal cell line [HEK293]. The seeding of 1 × 10^4 cells onto each well was executed in a 96-well plate in triplicate, and to keep the cells viable, overnight incubation was undertaken at 37 °C with 5% CO2 in a CO2 incubator. […] The microplate reader was set at 570 nm to measure the absorbance of each well.

[1] = test system: A-549 (Human Lung Cancer Cell Line); experiment: SRB antiproliferative assay, A-549; type: cell-based; conditions: Homo sapiens, A549, A-549, 48 h, read-out: GI50
Procedure: as §1
Antiproliferative activity through an SRB assay was performed for all the synthesized compounds on A-549 and MCF-7 cell lines. Around 5000 cells/well were quarantined into a 96-well microtiter plate in 100 μL. The synthesized compounds were solubilized in DMSO and diluted to different concentrations before use. The final-drug-concentration aliquots were poured into microtiter wells, and the plates were incubated for 48 h in regular conditions. After adding the final drug concentration, the cells were allowed to set in place and incubated for 60 min. A total of 50 µL of SRB solution (0.4% w/v) in 1% CH3COOH was poured into each well. The plates were then incubated for 20 min at RT. During subsequent staining, the unbounded dye was removed, and the plate reader recorded the eluted bound stain at 540 nm with a 690 nm reference wavelength. The assay was performed precisely using the appropriate reagents and reaction situation, as per the reported procedure. ADR was selected as the reference drug.

MCF-7 cells = experiment: Apoptosis study, acridine orange/ethidium bromide dual staining; type: cell-based, human; conditions: AO/EtBr staining, MCF-7, 40, 60, 80 µg/mL
Procedure: The staining technique was performed to determine changes in cellular morphology as acridine orange is a cell-permeable dye; i.e., it can enter inside the nucleus and subsequently intercalate with the DNA of both live and apoptotic cells an then emit a green fluorescence. On the other hand, ethidium bromide can only cross the plasma membrane of compromised or late apoptotic cells and bind with their DNA, subsequently radiating an orange to red fluorescence. Therefore, to assess alterations in the morphology of cells, MCF-7 cells were planted in a 12-well plate at a density of 5 × 10^4 cells/well and incubated in humidified air for 24 h at 37 °C. Following cell seeding, MCF-7 cells were exposed to compound VI(i) with at lower (40 µg/mL), IC50 (60 µg/mL), and higher (80 µg/mL) concentrations. Following this, the incubated cells were washed with a buffer (phosphate-buffered saline), and dual staining was executed with acridine orange and ethidium bromide. Then, a 12-well cell culture plate was kept at 37 °C for 30 min of incubation. Consequently, cells were lightly rinsed with phosphate-buffered saline. Following this, pictures were obtained in the inverted fluorescence microscope using the red and green channels for both the dyes.

GI50 [1]: < 10 µg/mL
Compound: COc1ccc(-c2cnn(CCCCCC(=O)NO)n2)cc1 [VI(i), N-Hydroxy-6-(4-(4-methoxyphenyl)-2H-1,2,3-triazol-2-yl)hexanamide]
IC50 (A549 cells): > 100 µg/mL
apoptosis induction (cell morphology) (MCF-7 cells): effectively trigger the apoptotic mode of cell death in breast cancer cells in a concentration-dependent manner
